ChEMBL document CHEMBL3045627, “Effect of allylisothiocyanate on Sitophilus oryzae, Tribolium confusum and Plodia interpunctella: Toxicity and effect on insect mitochondria” (2012)
Activity calls are given as the source filed them. The calls are words filed in the database; no cut-off is given here.

Assays:
Tribolium confusum [1] = experiment: Insecticidal activity against larvae of Tribolium confusum (confused flour beetle) in broken wheat assessed as mortality at 5 mg/l applied as fumes for 72 hr measured after 14 days by fumigation bioassay; details: in Triticum aestivum
Tribolium confusum [2] = experiment: Insecticidal activity against adult Tribolium confusum (confused flour beetle) in broken wheat assessed as mortality at 5 mg/l applied as fumes for 72 hr measured after 14 days by fumigation bioassay; details: in Triticum aestivum
Sitophilus oryzae [3] = experiment: whole plant or invertebrate; details: in Triticum aestivum
Sitophilus oryzae [4] = experiment: Insecticidal activity against adult Sitophilus oryzae (rice weevil) in wheat grain assessed as mortality at 85% EC dry formulation applied as fumes for 24 hr measured after 7 days by fumigation bioassay; format: functional
Tribolium confusum [5] = experiment: Insecticidal activity against third-instar larval stage of Tribolium confusum (confused flour beetle) assessed as enlarged mitochondria with reduced quantity of cristae, lower electron dense matrix, vacuolization and rarefaction of mitochondrial matrix in the epithelial cells of epidermal layer in the integument at LC20 applied as fumes measured after 24 hr by electron microscopic analysis; format: functional, organism-based; details: Epithelial cell
Tribolium confusum [6] = experiment: Insecticidal activity against third-instar larval stage of Tribolium confusum (confused flour beetle) assessed as vacuolization of mitochondrial matrix, nucleus with well distributed chromatin, enlarged mitochondria with few cristae, reduced electron density, matrix rarefaction in the epithelial cells of epidermal layer in the integument at LC50 applied as fumes measured after 24 hr by electron microscopic analysis; format: functional, organism-based; details: Epithelial cell
Tribolium confusum [7] = experiment: Insecticidal activity against third-instar larval stage of Tribolium confusum (confused flour beetle) assessed as morphological changes in anterior, posterior and middle regions of midgut with attatched malphigian tubules applied as vapours measured after 24 hr by light microscopy; format: functional, organism-based
Tribolium confusum [8] = experiment: Insecticidal activity against third-instar larval stage of Tribolium confusum (confused flour beetle) assessed as change in the integument colour to dark in the middle area with slight effect toward both ends applied as vapour measured after 24 hr by light microscopic analysis; format: functional, organism-based
Tribolium confusum [9] = experiment: Insecticidal activity against larvae of Tribolium confusum (confused flour beetle) in broken wheat assessed as mortality at 11.3 microl/L air at 85% EC formulation applied as fumes for 72 hr measured after 14 days by fumigation bioassay; format: functional
Tribolium confusum [10] = experiment: Insecticidal activity against adult Tribolium confusum (confused flour beetle) in broken wheat assessed as mortality at 11.3 microl/L air at 85% EC formulation applied as fumes for 72 hr measured after 14 days by fumigation bioassay; format: functional
Sitophilus oryzae [11] = experiment: Insecticidal activity against adult Sitophilus oryzae (rice weevil) in wheat grain assessed as mortality at 11.3 microl/L air at 85% EC formulation applied as fumes for 72 hr measured after 7 days by fumigation bioassay; format: functional
Tribolium confusum [12] = experiment: Insecticidal activity against larvae of Tribolium confusum (confused flour beetle) in broken wheat assessed as mortality at 9.4 microl/L air at 85% EC formulation applied as fumes for 72 hr measured after 14 days by fumigation bioassay; format: functional
Tribolium confusum [13] = experiment: Insecticidal activity against adult Tribolium confusum (confused flour beetle) in broken wheat assessed as mortality at 9.4 microl/L air at 85% EC formulation applied as fumes for 72 hr measured after 14 days by fumigation bioassay; format: functional
Sitophilus oryzae [14] = experiment: Insecticidal activity against adult Sitophilus oryzae (rice weevil) in wheat grain assessed as mortality at 9.4 microl/L air at 85% EC formulation applied as fumes for 72 hr measured after 7 days by fumigation bioassay; format: functional
Tribolium confusum [15] = experiment: (§1) Insecticidal activity against third-instar larval stage of Tribolium confusum (confused flour beetle) assessed as numerous mitochondria with few cristae, reduced electron density, matrix rarefaction and vacuolization of the mitochondrial matrix in regenerative nidi cells of the midgut at LC20 applied as fumes measured after 24 hr by electron microscopic analysis; format: functional, organism-based
Tribolium confusum [16] = experiment: Insecticidal activity against larvae of Tribolium confusum (confused flour beetle) in broken wheat assessed as mortality at 4.3 microl/L air at 85% EC formulation applied as fumes for 72 hr measured after 14 days by fumigation bioassay; format: functional
Tribolium confusum [17] = experiment: Insecticidal activity against adult Tribolium confusum (confused flour beetle) in broken wheat assessed as mortality at 4.3 microl/L air at 85% EC formulation applied as fumes for 72 hr measured after 14 days by fumigation bioassay; format: functional
Sitophilus oryzae [18] = experiment: Insecticidal activity against adult Sitophilus oryzae (rice weevil) in wheat grain assessed as mortality at 4.3 microl/L air at 85% EC formulation applied as fumes for 72 hr measured after 7 days by fumigation bioassay; format: functional
Plodia interpunctella [19] = experiment: Insecticidal activity against larvae of Plodia interpunctella (Indian meal moth ) in wheat grain assessed as mortality at 85% EC wettable formulation applied as fumes for 72 hr measured after 7 days by fumigation bioassay; format: functional
Tribolium confusum [20] = experiment: as §1, with “columnar” for “regenerative nidi”; format: functional, organism-based
Tribolium confusum [21] = experiment: Insecticidal activity against larvae of Tribolium confusum (confused flour beetle) in broken wheat assessed as mortality at 85% EC wettable formulation applied as fumes for 72 hr measured after 14 days by fumigation bioassay; format: functional
Tribolium confusum [22] = experiment: Insecticidal activity against adult Tribolium confusum (confused flour beetle) in broken wheat assessed as mortality at 85% EC wettable formulation applied as fumes for 72 hr measured after 14 days by fumigation bioassay; format: functional
Sitophilus oryzae [23] = experiment: Insecticidal activity against adult Sitophilus oryzae (rice weevil) in wheat grain assessed as mortality at 85% EC wettable formulation fumigated for 72 hr applied as fumes after 7 days by fumigation bioassay; format: functional
Plodia interpunctella [24] = experiment: Insecticidal activity against larvae of Plodia interpunctella (Indian meal moth ) in wheat grain assessed as mortality at 85% EC wettable formulation applied as fumes for 24 hr measured after 7 days by fumigation bioassay; format: functional
Tribolium confusum [25] = experiment: Insecticidal activity against larvae of Tribolium confusum (confused flour beetle) in broken wheat assessed as mortality at 85% EC wettable formulation applied as fumes for 24 hr measured after 14 days by fumigation bioassay; format: functional
Tribolium confusum [26] = experiment: Insecticidal activity against adult Tribolium confusum (confused flour beetle) in broken wheat assessed as mortality at 85% EC wettable formulation applied as fumes for 24 hr measured after 14 days by fumigation bioassay; format: functional
Sitophilus oryzae [27] = experiment: Insecticidal activity against adult Sitophilus oryzae (rice weevil) in wheat grain assessed as mortality at 85% EC wettable formulation applied as fumes for 24 hr measured after 7 days by fumigation bioassay; format: functional
Plodia interpunctella [28] = experiment: Insecticidal activity against larvae of Plodia interpunctella (Indian meal moth ) in wheat grain assessed as mortality at 85% EC dry formulation applied as fumes for 72 hr measured after 7 days by fumigation bioassay; format: functional
Tribolium confusum [29] = experiment: Insecticidal activity against larvae of Tribolium confusum (confused flour beetle) in broken wheat assessed as mortality at 85% EC dry formulation applied as fumes for 72 hr measured after 14 days by fumigation bioassay; format: functional
Tribolium confusum [30] = experiment: Insecticidal activity against adult Tribolium confusum (confused flour beetle) in broken wheat assessed as mortality at 85% EC dry formulation applied as fumes for 72 hr measured after 14 days by fumigation bioassay; format: functional
Sitophilus oryzae [31] = experiment: Insecticidal activity against adult Sitophilus oryzae (rice weevil) in wheat grain assessed as mortality at 85% EC dry formulation applied as fumes for 72 hr measured after 7 days by fumigation bioassay; format: functional
Plodia interpunctella [32] = experiment: Insecticidal activity against larvae of Plodia interpunctella (Indian meal moth ) in wheat grain assessed as mortality at 85% EC dry formulation applied as fumes for 24 hr measured after 7 days by fumigation bioassay; format: functional
Tribolium confusum [33] = experiment: Insecticidal activity against larvae of Tribolium confusum (confused flour beetle) in broken wheat assessed as mortality at 85% EC dry formulation applied as fumes for 24 hr measured after 14 days by fumigation bioassay; format: functional
Tribolium confusum [34] = experiment: Insecticidal activity against adult Tribolium confusum (confused flour beetle) in broken wheat assessed as mortality at 85% EC dry formulation applied as fumes for 24 hr measured after 14 days by fumigation bioassay; format: functional

Question: With P [PHOSPHINE] as the molecule, how does the mortality at 5 µg/mL (Tribolium confusum [1]) read?
Answer: The mortality at 5 µg/mL was 100%.

Question: And the mortality at 5 µg/mL (Tribolium confusum [2])?
Answer: The mortality at 5 µg/mL was 100%.

Question: What about the mortality at 5 µg/mL (Sitophilus oryzae [3]) of the same molecule?
Answer: The mortality at 5 µg/mL was 100%.

Question: What does the source list for C=CCN=C=S [ALLYL ISOTHIOCYANATE]?
Answer: LC50 (Sitophilus oryzae [4]): 2.6 uL/L; LC95 (Sitophilus oryzae [4]): 4.7 uL/L; Activity (Tribolium confusum [5]): Active; Activity (Tribolium confusum [6]): Active; Activity (Tribolium confusum [7]): Active; Activity (Tribolium confusum [8]): Active; mortality (Tribolium confusum [9]): 100%; mortality (Tribolium confusum [10]): 100%; mortality (Sitophilus oryzae [11]): 100%; mortality (Tribolium confusum [12]): 93%; mortality (Tribolium confusum [13]): 100%; mortality (Sitophilus oryzae [14]): 100%; Activity (Tribolium confusum [15]): Active; mortality (Tribolium confusum [16]): 48%; mortality (Tribolium confusum [17]): 70%; mortality (Sitophilus oryzae [18]): 100%; LC50 (Plodia interpunctella [19]): 2.3 uL/L; LC95 (Plodia interpunctella [19]): 5 uL/L; Activity (Tribolium confusum [20]): Active; LC50 (Tribolium confusum [21]): 5.5 uL/L; LC95 (Tribolium confusum [21]): 9.9 uL/L; LC50 (Tribolium confusum [22]): 4.2 uL/L; LC95 (Tribolium confusum [22]): 7.8 uL/L; LC50 (Sitophilus oryzae [23]): 2.2 uL/L; LC95 (Sitophilus oryzae [23]): 3.7 uL/L; LC50 (Plodia interpunctella [24]): 3.7 uL/L; LC95 (Plodia interpunctella [24]): 8.7 uL/L; LC50 (Tribolium confusum [25]): 7.1 uL/L; LC50 (Tribolium confusum [26]): 5.5 uL/L; LC95 (Tribolium confusum [26]): 12.8 uL/L; LC50 (Sitophilus oryzae [27]): 2.7 uL/L; LC95 (Sitophilus oryzae [27]): 4.2 uL/L; LC50 (Plodia interpunctella [28]): 2.2 uL/L; LC95 (Plodia interpunctella [28]): 4.1 uL/L; LC50 (Tribolium confusum [29]): 4.7 uL/L; LC95 (Tribolium confusum [29]): 9.5 uL/L; LC50 (Tribolium confusum [30]): 3.7 uL/L; LC95 (Tribolium confusum [30]): 6.6 uL/L; LC50 (Sitophilus oryzae [31]): 2 uL/L; LC95 (Sitophilus oryzae [31]): 3.4 uL/L; LC50 (Plodia interpunctella [32]): 3.5 uL/L; LC95 (Plodia interpunctella [32]): 7.7 uL/L; LC50 (Tribolium confusum [33]): 7.3 uL/L; LC50 (Tribolium confusum [34]): 4.7 uL/L; LC95 (Tribolium confusum [34]): 9.3 uL/L
